Patent US10875876B2, “Cyclized sulfamoylarylamide derivatives and the use thereof as medicaments for the treatment of hepatitis B” (priority 2015, dated 2020)
pEC50: −log10 of the molar value. Like-named read-outs stand apart in the source and are kept apart here.

Assays:
HBV = experiment: anti HBV activity, HepG2.117 cell line, intracellular HBV DNA by realtime PCR; assay type: cell-based; settings: HepG2.117 cell line (Tet-off), 3 days of treatment, intracellular HBV DNA quantified by realtime PCR, read-out: HBV-AVE-HepG2.117 EC50
Outline: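 HepG2.117 cells, a Tet-off line that replicates HBV without doxycycline, were induced and then treated in duplicate with serially diluted compound. After 3 days, intracellular HBV DNA was quantified by real-time PCR with an HBV-specific primer set and probe.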

[1] = Cytotoxicity in HepG2 cells, Resazurin assay; settings: human, HepG2 cells, TOX-HepG2-4 d CC50 (μM), HepG2 cells incubated for 4 days, viability by Resazurin assay
[2] = Hepatitis B virus, HepG2.117, 72 h

| Structure (SMILES) | melting point [°C] | pEC50 (HBV; [2]) | CC50 at 4 days [1] [µM] | pEC50 (HBV) |
| --- | --- | --- | --- | --- |
| CC1C=Cc2c(csc2C(=O)Nc2ccc(F)c(F)c2)S(=O)(=O)N1 (stereo not drawn) | 220.8 | – | – | – |
| Cn1cc2c(c1C(=O)Nc1ccc(F)c(C#N)c1)OC[C@H](C(O)C1CC1)NS2(=O)=O (stereo partly drawn) | 233.9 | – | – | – |
| Cn1cc2c(c1C(=O)Nc1ccc(F)c(F)c1)OCC(C)(c1ncccn1)NS2(=O)=O (racemic) [Compound 153, N-(3,4-difluorophenyl)-3,7-dimethyl-1,1-dioxo-3-pyrimidin-2-yl-2,4-dihydropyrrolo[3,4-b][1,4,5]oxathiazepine-6-carboxamide] | – | 7.17 | > 25 | – |
| CC1COc2c(ccc(F)c2C(=O)Nc2ccc(F)c(F)c2)S(=O)(=O)N1 (stereo not drawn) [Compound 12, N-(3,4-difluorophenyl)-7-fluoro-3-methyl-1,1-dioxo-3,4-dihydro-2H-5,1λ^6,2-benzoxathiazepine-6-carboxamide] | – | 6.46 | > 25 | – |
| CC(C)C(O)C1COc2c(cn(C)c2C(=O)Nc2ccc(F)c(C#N)c2)S(=O)(=O)N1 (stereo not drawn) [Compound 119a, N-(3-cyano-4-fluoro-phenyl)-3-(1-hydroxy-2-methyl-propyl)-7-methyl-1,1-dioxo-3,4-dihydro-2H-pyrrolo[3,4-b][1,4,5]oxathiazepine-6-carboxamide] | – | 7.96 | > 25 | – |
| CCC(O)[C@H]1COc2c(cn(C)c2C(=O)Nc2ccc(F)c(C#N)c2)S(=O)(=O)N1 (stereo partly drawn) [Compound 122a, (3R)—N-(3-cyano-4-fluoro-phenyl)-3-(1-hydroxypropyl)-7-methyl-1,1-dioxo-3,4-dihydro-2H-pyrrolo[3,4-b][1,4,5]oxathiazepine-6-carboxamide] | – | 7.92 | > 25 | – |
| Cc1cc(NC(=O)c2c3c(cn2C)S(=O)(=O)N[C@@H](C)C=C3)ccc1F (single isomer, unassigned) [Compound 31, (*S)—N-(4-fluoro-3-methyl-phenyl)-3,7-dimethyl-1,1-dioxo-2,3-dihydropyrrolo[3,4-f]thiazepine-6-carboxamide] | – | 8.05 | > 25 | – |
| Cn1cc2c(c1C(=O)Nc1ccc(F)c(F)c1)OC[C@H](c1ccccc1)NS2(=O)=O [Compound 26, (3S)—N-(3,4-difluorophenyl)-7-methyl-1,1-dioxo-3-phenyl-3,4-dihydro-2H-pyrrolo[3,4-b][1,4,5]oxathiazepine-6-carboxamide] | – | 7.57 | > 25 | – |
| C[C@@H](O)[C@H]1C=Cc2c(cn(C)c2C(=O)Nc2ccc(F)c(F)c2)S(=O)(=O)N1 [Compound 69, (3R)—N-(3,4-difluorophenyl)-3-[(1R)-1-hydroxyethyl]-7-methyl-1,1-dioxo-2,3-dihydropyrrolo[3,4-f]thiazepine-6-carboxamide] | – | 7.48 | > 25 | – |
| Cn1cc2c(c1C(=O)Nc1ccc(F)c(F)c1)OCC(C(O)c1cccnc1)NS2(=O)=O (stereo not drawn) [Compound 95, N-(3,4-difluorophenyl)-3-[hydroxy(3-pyridyl)methyl]-7-methyl-1,1-dioxo-3,4-dihydro-2H-pyrrolo[3,4-b][1,4,5]oxathiazepine-6-carboxamide] | – | 7.66 | > 25 | – |
| CC(C)C1C=Cc2c(cn(C)c2C(=O)Nc2ccc(F)c(C(F)F)c2)S(=O)(=O)N1 (stereo not drawn) [Compound 82, N-[3-(difluoromethyl)-4-fluoro-phenyl]-3-isopropyl-7-methyl-1,1-dioxo-2,3-dihydropyrrolo[3,4-f]thiazepine-6-carboxamide] | – | 8.40 | > 25 | – |
| Cn1cc2c(c1C(=O)Nc1ccc(F)c(F)c1)OCC1(COC1)NS2(=O)=O [Compound 24, N-(3,4-difluorophenyl)-7-methyl-1,1-dioxo-spiro[2,4-dihydropyrrolo-[3,4-b][1,4,5]oxathiazepine-3,3′-oxetane]-6-carboxamide] | – | 7.17 | > 25 | – |
| Cc1c2c(c(C(=O)Nc3ccc(F)c(F)c3)n1C)CC[C@H](C)NS2(=O)=O [Compound 152, (3S)—N-(3,4-difluorophenyl)-3,7,8-trimethyl-1,1-dioxo-2,3,4,5-tetrahydropyrrolo[3,4-f]thiazepine-6-carboxamide] | – | 7.85 | > 25 | – |
| Cc1cc(NC(=O)c2c3c(cn2C)S(=O)(=O)N[C@@H](C(C)(C)O)CO3)ccc1F [Compound 195, (3R)—N-(4-fluoro-3-methyl-phenyl)-3-(1-hydroxy-1-methyl-ethyl)-7-methyl-1,1-dioxo-3,4-dihydro-2H-pyrrolo[3,4-b][1,4,5]oxathiazepine-6-carboxamide] | – | 8.15 | > 25 | – |
| Cc1cc(NC(=O)c2c3c(cn2C)S(=O)(=O)NC(C(C)C)CC3)ccc1F (stereo not drawn) [Compound 109, N-(4-fluoro-3-methyl-phenyl)-3-isopropyl-7-methyl-1,1-dioxo-2,3,4,5-tetrahydropyrrolo[3,4-f]thiazepine-6-carboxamide] | – | 8.52 | > 25 | – |
| CC1COc2c(cn(C)c2C(=O)Nc2ccc(F)c(F)c2)S(=O)(=O)N1 (single isomer, unassigned) [Compound 14a, N-(3,4-difluorophenyl)-3,7-dimethyl-1,1-dioxo-3,4-dihydro-2H-pyrrolo-[3,4-b][1,4,5]oxathiazepine-6-carboxamide] | – | – | > 25 | 6.60 |
| Cc1cccc(CC2(C)COc3c(cn(C)c3C(=O)Nc3ccc(F)c(F)c3)S(=O)(=O)N2)n1 (single isomer, unassigned) [Compound 172a, N-(3,4-difluorophenyl)-3,7-dimethyl-3-[(6-methyl-2-pyridyl)methyl]-1,1-dioxo-2,4-dihydropyrrolo[3,4-b][1,4,5]oxathiazepine-6-carboxamide] | – | 7.14 | > 25 | – |
| Cn1cc2c(c1C(=O)Nc1ccc(F)c(F)c1)CCNS2(=O)=O [Compound 13, N-(3,4-difluorophenyl)-6-methyl-1,1-dioxo-3,4-dihydro-2H-pyrrolo-[3,4-e]thiazine-5-carboxamide] | – | 6.96 | > 25 | – |
| Cn1cc2c(c1C(=O)Nc1ccc(F)c(C#N)c1)OC[C@H](C(O)C1CC1)NS2(=O)=O (stereo partly drawn) [Compound 120a, (3R)—N-(3-cyano-4-fluoro-phenyl)-3-[cyclopropyl(hydroxy)methyl]-7-methyl-1,1-dioxo-3,4-dihydro-2H-pyrrolo[3,4-b][1,4,5]oxathiazepine-6-carboxamide] | – | 8.15 | > 25 | – |
| C[C@H](O)[C@H]1COc2c(cn(C)c2C(=O)Nc2ccnc(Br)c2)S(=O)(=O)N1 [Compound 66, (3R)—N-(2-bromo-4-pyridyl)-3-[(1S)-1-hydroxyethyl]-7-methyl-1,1-dioxo-3,4-dihydro-2H-pyrrolo[3,4-b][1,4,5]oxathiazepine-6-carboxamide] | – | 7.33 | > 25 | – |
| Cc1cc(CC2(C)COc3c(cn(C)c3C(=O)Nc3ccc(F)c(F)c3)S(=O)(=O)N2)n(C)n1 (single isomer, unassigned) [Compound 175a, N-(3,4-difluorophenyl)-3-[(2,5-dimethylpyrazol-3-yl)methyl]-3,7-dimethyl-1,1-dioxo-2,4-dihydropyrrolo[3,4-b][1,4,5]oxathiazepine-6-carboxamide] | – | – | > 22.9 | 7.68 |
| CCC1Cc2c(cn(C)c2C(=O)Nc2ccc(F)c(F)c2)S(=O)(=O)N1 (stereo not drawn) [Compound 17, N-(3,4-difluorophenyl)-3-ethyl-6-methyl-1,1-dioxo-3,4-dihydro-2H-pyrrolo[3,4-e]thiazine-5-carboxamide] | – | > 7.01 | > 25 | – |
